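Each compound was tested at five concentrations against cells in 96-well plates for 48 hours. GI50 is the concentration that inhibits growth by half.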 The source made the active and inactive calls. No stated cut-off is given here; in the data, active = GI50 up to about 1.1 µM and inactive = higher.

Some test systems named below: M19-MEL; DMS-273; HOP-18; LXFL 529; SNB-78; KM-20L2; DLD-1; XF498; RXF 631.
Experiment in all cases: NCI anticancer screen, dose series, 48 h

`NC(CSC(c1ccccc1)(c1ccccc1)c1ccccc1)C(=O)O` (stereo unspecified): the GI50 was 3.19 µM (inactive) in the assay with M19-MEL; 0.235 µM (active) with DMS-273; 4.14 µM (inactive) with HOP-18; 7.76 µM (inactive) in the assay on LXFL 529; 2.61 µM (inactive) with SNB-78; 1.82 µM (inactive) with KM-20L2. Further, in the assay on DLD-1, the GI50 is 0.7 µM (active).

For the molecule `Nc1nc[n+](Cc2ccccc2)c2ncn(Cc3ccccc3)c12`, the GI50 in the assay with M19-MEL is > 100 µM (inactive); in the assay on DMS-273, > 100 µM (inactive); in the assay on HOP-18 it was > 100 µM (inactive); with LXFL 529 it was > 100 µM (inactive); in the assay with SNB-78, 75 µM (inactive); with KM-20L2, 55.2 µM (inactive). Besides, the GI50 with DLD-1 is 80.2 µM (inactive).

`O=C(N/N=C(/c1nc2ccc([N+](=O)[O-])cc2[nH]c1=O)C(O)c1ccc([N+](=O)[O-])cc1)c1ccncc1` (stereo unspecified): the GI50 in the assay on M19-MEL is > 100 µM (inactive); in the assay on HOP-18 it was > 100 µM (inactive); in the assay on XF498 it was > 100 µM (inactive); in the assay on LXFL 529 it was 53.1 µM (inactive); in the assay with SNB-78, > 100 µM (inactive); in the assay with DLD-1, > 100 µM (inactive).

Turning to `N=C1SCCS1`, the GI50 in the assay on M19-MEL, in the assay on XF498, in the assay on LXFL 529, with SNB-78, in the assay on KM-20L2 and in the assay on DLD-1 was > 100 µM (inactive) throughout.

In the case of `COC(=O)/C(=N\N)C(C(=O)C(=O)Nc1nnc(S)[nH]1)c1nc2ccc([N+](=O)[O-])cc2nc1O` (stereo unspecified), the GI50 in the assay with M19-MEL, with DMS-273, in the assay on RXF 631, in the assay on HOP-18, with LXFL 529 and with SNB-78 was > 100 µM (inactive) in each case. The GI50 with KM-20L2 and with DLD-1 was > 100 µM (inactive) in each case.

Take `CO[C@@H]1C=C[C@@]23c4cc5c(cc4C(=O)O[C@H]2CN(C)[C@H]3C1)OCO5`: the GI50 with M19-MEL, with DMS-273, in the assay on HOP-18, with XF498, in the assay with LXFL 529 and with SNB-78 was > 100 µM (inactive) in each case. The GI50 in the assay with KM-20L2 and in the assay with DLD-1 was > 100 µM (inactive) in each case.

Regarding `C=C(Br)C(C)(Br)CCC(Br)C(C)(C)Br` (stereo unspecified), the GI50 in the assay with M19-MEL is 17 µM (inactive); with DMS-273, 19.2 µM (inactive); with HOP-18 it was > 100 µM (inactive); with LXFL 529, 20.5 µM (inactive); with SNB-78, 26.2 µM (inactive); with DLD-1, 37 µM (inactive).

Consider `O=C1/C(=C\c2ccccc2)c2ccccc2N1/N=C\c1ccccc1`, for which the GI50 in the assay on M19-MEL was 97.7 µM (inactive); with DMS-273, > 100 µM (inactive); in the assay on HOP-18, > 100 µM (inactive); with XF498, > 100 µM (inactive); in the assay with SNB-78, > 100 µM (inactive); with KM-20L2, > 100 µM (inactive). Further, the GI50 with DLD-1 was 59 µM (inactive).

Consider `C[N+](C)(C)CC(=O)N/N=C(/Cc1nc2ccc(Cl)cc2nc1O)C1=NS(=O)(=O)c2cc(S(N)(=O)=O)c(Cl)cc2N1`, for which the GI50 with M19-MEL, with KM-20L2 and in the assay on DLD-1 was > 100 µM (inactive) in each case.

With `O=S(=O)(c1ccccc1)C1CN(Cc2ccccc2)CCN(Cc2ccccc2)C1`, the GI50 is 14.4 µM (inactive) in the assay on M19-MEL; 12.7 µM (inactive) in the assay on DMS-273; 18.8 µM (inactive) in the assay on XF498; 11.3 µM (inactive) in the assay with LXFL 529; 35.2 µM (inactive) in the assay on KM-20L2; 12.1 µM (inactive) in the assay with DLD-1.

`COc1ccccc1/C=C(\NC(=O)c1ccccc1)c1nc2ccc(Cl)cc2[nH]1`: the GI50 in the assay with M19-MEL was 32.9 µM (inactive); in the assay with DMS-273, 37.1 µM (inactive); in the assay on HOP-18, 26.2 µM (inactive); in the assay on XF498, 34.4 µM (inactive); with LXFL 529 it was 21.1 µM (inactive); with SNB-78, 38.9 µM (inactive). Further, the GI50 was 48.8 µM (inactive) with KM-20L2 and 23.8 µM (inactive) with DLD-1.

Consider `CCOc1ccccc1NC(=O)C(=O)C(C(=O)c1ccc2ccccc2c1)C1OC(=O)c2ccccc21` (stereo unspecified), for which the GI50 with DMS-273 is 12.3 µM (inactive); in the assay on RXF 631, 6.18 µM (inactive); with HOP-18, 16.6 µM (inactive); in the assay on LXFL 529, 5.21 µM (inactive); with SNB-78, 11.6 µM (inactive); with KM-20L2, 28.3 µM (inactive). Moreover, in the assay with DLD-1, the GI50 is 15.2 µM (inactive).

As to `COc1ccccc1OCC(COC(=O)Nc1ccc(C)cc1)OC(=O)Nc1ccc(C)cc1` (stereo unspecified), the GI50 with DMS-273 is 16.7 µM (inactive); in the assay with RXF 631 it was 19.4 µM (inactive); with HOP-18 it was 18.4 µM (inactive); with LXFL 529 it was 27.1 µM (inactive); in the assay with SNB-78, 26.7 µM (inactive); in the assay with KM-20L2, 23.1 µM (inactive). Besides, the GI50 in the assay with DLD-1 is 16 µM (inactive).

As to `[O-][n+]1c2cc(CBr)c(CBr)cc2[n+]([O-])c2c(O)cccc21`, the GI50 with M19-MEL was 1.73 µM (inactive); with DMS-273, 1.68 µM (inactive); in the assay on RXF 631, 3.15 µM (inactive); in the assay on HOP-18 it was 2.39 µM (inactive); with XF498, 2.35 µM (inactive); with LXFL 529, 1.56 µM (inactive). For the same molecule, the GI50 is 1.94 µM (inactive) in the assay on SNB-78, 3.07 µM (inactive) in the assay on KM-20L2 and 1.41 µM (inactive) with DLD-1.

As to `COc1ccc(NC(=O)CC(=O)n2nc(-c3ccccc3)c(/N=N/c3ccc(C)cc3)c2-c2ccccc2)cc1`, the GI50 in the assay with M19-MEL is 28.9 µM (inactive); with DMS-273, 33.3 µM (inactive); with RXF 631 it was 54.5 µM (inactive); in the assay on HOP-18 it was 24.3 µM (inactive); with XF498 it was 12.4 µM (inactive); with LXFL 529, 40.8 µM (inactive). In addition, the GI50 with SNB-78 is 20.8 µM (inactive); in the assay with KM-20L2 it was > 78.2 µM (inactive); with DLD-1, > 79.3 µM (inactive).

On to `CC1=CCN(c2ccccn2)OC1c1ccccc1` (stereo unspecified), for which the GI50 with M19-MEL, in the assay with DMS-273, in the assay on RXF 631, with HOP-18, in the assay on XF498 and with LXFL 529 was > 100 µM (inactive) in each case. Also, the GI50 in the assay with SNB-78, with KM-20L2 and in the assay on DLD-1 was > 100 µM (inactive) in each case.

With `O=C1N=C2Sc3ccc4ccccc4c3N2C1=O`, the GI50 in the assay with M19-MEL was 36.1 µM (inactive); in the assay with DMS-273 it was 22.8 µM (inactive); in the assay with RXF 631 it was 20.8 µM (inactive); with HOP-18, 15 µM (inactive); with XF498 it was 19.2 µM (inactive); with LXFL 529 it was 18.7 µM (inactive). Further, the GI50 is 26.4 µM (inactive) in the assay with SNB-78, 25.4 µM (inactive) in the assay on KM-20L2 and 31.1 µM (inactive) in the assay with DLD-1.

With `CC1(C)COC(C23C4C5C2C2C3C4C52I)=N1` (stereo unspecified), the GI50 in the assay on M19-MEL, in the assay on HOP-18, in the assay on XF498, in the assay on LXFL 529, in the assay on SNB-78 and with KM-20L2 was > 100 µM (inactive) each time. Also, in the assay on DLD-1, the GI50 is > 100 µM (inactive).

Take `CCOC(=O)C1C(=O)c2cccc(OC)c2C2COC(=O)N12` (stereo unspecified): the GI50 with M19-MEL, with DMS-273, in the assay with RXF 631, in the assay on HOP-18, in the assay with XF498 and with LXFL 529 was > 100 µM (inactive) throughout. In addition, the GI50 in the assay with KM-20L2 and in the assay with DLD-1 was > 100 µM (inactive) in each case.

As to `c1ccc(SC(CCCCC(Sc2ccccc2)Sc2ccccc2)Sc2ccccc2)cc1`, the GI50 in the assay with M19-MEL, with DMS-273, with RXF 631, in the assay on XF498, in the assay on LXFL 529 and in the assay on SNB-78 was > 100 µM (inactive) in each case. In addition, the GI50 in the assay on KM-20L2 and in the assay on DLD-1 was > 100 µM (inactive) throughout.

In the case of `O=c1[nH]nc(-c2ccccc2)c(-c2ccccc2)c1-n1nc(-c2ccccc2)c2ccccc2c1=O`, the GI50 was > 100 µM (inactive) in the assay on M19-MEL; 89.5 µM (inactive) with DMS-273; > 100 µM (inactive) with HOP-18; 46.8 µM (inactive) in the assay on LXFL 529; > 100 µM (inactive) with SNB-78; 76.7 µM (inactive) in the assay with DLD-1.

Regarding `Cc1ccc(NC(=O)C(=O)C(C(=O)/C=C/c2ccccc2)C2OC(=O)c3ccccc32)c(C)c1` (stereo unspecified), the GI50 with M19-MEL, in the assay on RXF 631, in the assay with XF498, with LXFL 529, in the assay on SNB-78 and in the assay on KM-20L2 was > 100 µM (inactive) in each case. Also, in the assay with DLD-1, the GI50 is > 100 µM (inactive).

For the molecule `CC1/C=C/[C@@]2(C)CCC(C(C)(C)O)C2C(O)C[C@](C)(O)/C=C/C1` (stereo partly specified), the GI50 in the assay on DMS-273, in the assay with HOP-18, in the assay with XF498, with LXFL 529, in the assay with SNB-78 and in the assay on KM-20L2 was > 100 µM (inactive) in each case. For the same molecule, the GI50 with DLD-1 is > 100 µM (inactive).

On to `COC1C(O)C(C)OC(OC2C(Oc3cccc4c(O)c5c(=O)oc6ccc(C)c7c(=O)oc(c34)c5c67)OC(C)C(O)C2O)C1O` (stereo unspecified), for which the GI50 in the assay with M19-MEL was 1.04 µM (active); in the assay on DMS-273, 2.1 µM (inactive); in the assay on HOP-18 it was 2.45 µM (inactive); in the assay on XF498, 0.824 µM (active); in the assay with SNB-78 it was 2 µM (inactive); in the assay with KM-20L2 it was 2.52 µM (inactive). Also, the GI50 in the assay with DLD-1 was 1.26 µM (inactive).

Consider `COc1cc2c(c(OC)c1OC)-c1ccc(SC)c(=O)cc1[C@@H](NCc1cccc([N+](=O)[O-])c1)CC2`, for which the GI50 in the assay on M19-MEL was < 0.01 µM (active); with DMS-273 it was < 0.01 µM (active); with RXF 631 it was < 0.01 µM (active); with HOP-18, > 100 µM (inactive); in the assay with XF498, < 0.01 µM (active); in the assay on LXFL 529, < 0.01 µM (active). For the same molecule, the GI50 in the assay with SNB-78, with KM-20L2 and in the assay on DLD-1 was < 0.01 µM (active) in each case.

Source of the values: ChEMBL document CHEMBL1201862, “PubChem BioAssay data set” (2004).
